Measured values as given in US4145554A, “3-Nitropyrazole derivatives” (Eli Lilly and Company, priority 1977, dated 1979).
Values after ≈ are worked out from the molar mass of the structure shown. Like-named read-outs stand apart in the source and are kept apart here.

What was measured:
[1] = tested on: Escherichia coli; experiment: in vitro tube dilution test (MIC); format: cell-based
Excerpt: (§1) Our compound, 1-(2-hydroxyethyl)-3-nitro-4-pyrazolecarboxamide, has been extensively tested in vitro to determine the range of microorganisms against which it is active. The table of data below reports the minimum inhibitory concentration (MIC) at which the compound is effective in controlling a variety of microorganisms in a standard tube dilution test system. The MIC is reported as micrograms of compound per milliliter.
(§2) Other compounds of our invention have also been tested in the tube dilution test and shown to have in vitro activity against a number of microorganisms. The table below reports tests of a number of exemplary compounds against exemplary microorganisms. The compounds are identified by their numbers in the listing above. The data are reported as the MIC in micrograms per milliliter against the named exemplary microorganisms.

[2] = tested on: Mycoplasma gallisepticum; experiment: in vitro tube dilution test (MIC); format: cell-based; details: Mycoplasmoides gallisepticum
Excerpt: as §1, §2

[3] = tested on: Salmonella dublin; experiment: in vitro tube dilution test (MIC); format: cell-based; details: Salmonella enterica
Excerpt: (§3) The other preferred compounds of our invention have also been thoroughly tested in the in vitro tube dilution test.
as §2

[4] = tested on: Staphylococcus aureus sp. 1130; experiment: in vitro tube dilution test (MIC); format: cell-based
Excerpt: as §3, §2

[5] = tested on: Vibrio coli 3811; experiment: in vitro tube dilution test (MIC); format: cell-based; details: Campylobacter coli
Excerpt: as §3, §2

[6] = tested on: Streptococcus sp. 80; experiment: in vitro tube dilution test (MIC); format: cell-based
Excerpt: as §2

[7] = tested on: Pasteurella multocida; experiment: in vitro tube dilution test (MIC); format: cell-based
Excerpt: as §1, §3, §2

[8] = tested on: Salmonella typhimurium; experiment: Salmonellosis in chickens, single injection to day-old chicks; format: in vivo; details: Salmonella enterica, TYPHIMURIUM, 168 h; single injection of 60 mg./kg.; seven days; read-out: Survival (converted)
Protocol: A number of our 3-nitropyrazoles have been tested against an induced infection of Salmonella typhimurium in day-old chicks. The test was conducted by administering a single injection of 60 mg./kg. of the compounds to each of five chicks. The following day, the chicks were challenged by the subcutaneous injection of a dispersion of S. typhimurium organisms sufficient to kill most or all of the untreated control chicks.
Some of the compounds were tested more than once, in which instances the data are reported as the total survivors from the multiple treatment groups. Untreated, challenged control groups of chicks were tested together with each batch of groups of chicks to which test compounds were administered. Since the mortality of the untreated control chicks varied somewhat from one group of tests to another, results of the untreated control groups are reported below with each test.

[9] = Mycoplasma gallisepticum, tube dilution, read-out: MIC
[10] = Salmonella dublin, tube dilution, read-out: MIC
[11] = Staphylococcus aureus sp. 1130, tube dilution, read-out: MIC
[12] = Vibrio coli 3811, tube dilution, read-out: MIC
[13] = Streptococcus sp. 80, tube dilution, read-out: MIC

| Compound | MIC ([1]; tube dilution, read-out: MIC) | MIC [2, 9] | MIC [3, 10] | MIC [4, 11] | MIC [5, 12] | MIC [6, 13] | MIC ([7]; tube dilution, read-out: MIC) | responders at 60 mg/kg [8] | MIC [1] | MIC [2] | MIC [3] | MIC ([4]; Staphylococcus aureus, SP.1130) | MIC [5]; 3811 | MIC ([6]; Streptococcus, SP.80) | MIC [7] |
| --- | --- | --- | --- | --- | --- | --- | --- | --- | --- | --- | --- | --- | --- | --- | --- |
| N#Cc1cn(CC2CO2)nc1[N+](=O)[O-] (stereo not drawn) [Compound 31, 1-(2,3-epoxypropyl)-3-nitro-4-pyrazolecarbonitrile] | 50 µg/mL (≈ 258 µM) | 50 µg/mL (≈ 258 µM) | 50 µg/mL (≈ 258 µM) | 50 µg/mL (≈ 258 µM) | 12.5 µg/mL (≈ 64.4 µM) | 50 µg/mL (≈ 258 µM) | – | – | – | – | – | – | – | – | – |
| N#Cc1cn(Cc2ccccc2)nc1[N+](=O)[O-] [Compound 70, 1-benzyl-3-nitro-4-pyrazolecarbonitrile] | 100 µg/mL (≈ 438 µM) | > 50 µg/mL | 100 µg/mL (≈ 438 µM) | 100 µg/mL (≈ 438 µM) | 12.5 µg/mL (≈ 54.8 µM) | 100 µg/mL (≈ 438 µM) | – | – | – | – | – | – | – | – | – |
| NC(=O)c1c[nH]nc1[N+](=O)[O-] [Compound 60, 3(5)-nitro-4-pyrazolecarboxamide] | > 50 µg/mL | 50 µg/mL (≈ 320 µM) | > 50 µg/mL | > 50 µg/mL | > 50 µg/mL | > 50 µg/mL | 25 µg/mL (≈ 160 µM) | – | – | – | – | – | – | – | – |
| NC(=O)c1cn(CCOC(=O)c2ccc(Cl)c(Cl)c2)nc1[N+](=O)[O-] [Compound 98, 2-(4-carbamoyl-3-nitropyrazol-1-yl)ethyl 3,4-dichlorobenzoate] | – | – | – | – | – | – | – | 100% | – | – | – | – | – | – | – |
| CCOC(Cn1cc(C#N)c([N+](=O)[O-])n1)OCC [Compound 67, 1-(2,2-diethoxyethyl)-3-nitro-4-pyrazolecarbonitrile] | 50 µg/mL (≈ 197 µM) | 50 µg/mL (≈ 197 µM) | 50 µg/mL (≈ 197 µM) | 50 µg/mL (≈ 197 µM) | 50 µg/mL (≈ 197 µM) | 50 µg/mL (≈ 197 µM) | 25 µg/mL (≈ 98.3 µM) | – | – | – | – | – | – | – | – |
| CC(O)Cn1cc(C(N)=O)c([N+](=O)[O-])n1 (stereo not drawn) [Compound 69, 1-(2-hydroxypropyl)-3-nitro-4-pyrazolecarboxamide] | – | – | – | – | – | – | – | 100% | – | – | – | – | – | – | – |
| CCOC(=O)OCCn1cc(C(N)=O)c([N+](=O)[O-])n1 [Compound 78, [2-(4-carbamoyl-3-nitropyrazol-1-yl)ethyl] ethyl carbonate] | – | – | – | – | – | – | – | 40% | – | – | – | – | – | – | – |
| Cn1cc(C(=O)NN=Cc2ccc([N+](=O)[O-])o2)c([N+](=O)[O-])n1 [Compound 74, 1-methyl-3-nitro-4-pyrazolecarboxylic acid, 5-nitrofurfurylidene hydrazide] | – | – | – | – | – | – | – | – | 6.25 µg/mL (≈ 20.3 µM) | 0.78 µg/mL (≈ 2.53 µM) | 12.5 µg/mL (≈ 40.6 µM) | 1.56 µg/mL (≈ 5.06 µM) | 0.39 µg/mL (≈ 1.27 µM) | 50 µg/mL (≈ 162 µM) | – |
| N#CCCn1cc(C#N)c([N+](=O)[O-])n1 [Compound 73, 4-cyano-3-nitro-1-pyrazolepropionitrile] | 50 µg/mL (≈ 262 µM) | 50 µg/mL (≈ 262 µM) | 50 µg/mL (≈ 262 µM) | 50 µg/mL (≈ 262 µM) | 25 µg/mL (≈ 131 µM) | 50 µg/mL (≈ 262 µM) | 12.5 µg/mL (≈ 65.4 µM) | – | – | – | – | – | – | – | – |
| CCSCCn1cc(C#N)c([N+](=O)[O-])n1 [Compound 72, 1-(2-ethylthioethyl)-3-nitro-4-pyrazolecarbonitrile] | > 50 µg/mL | > 50 µg/mL | > 50 µg/mL | > 50 µg/mL | > 50 µg/mL | > 50 µg/mL | > 50 µg/mL | – | – | – | – | – | – | – | – |
| C#CCn1cc(C#N)c([N+](=O)[O-])n1 [Compound 4, 1-propargyl-3-nitro-4-pyrazolecarbonitrile] | 50 µg/mL (≈ 284 µM) | 50 µg/mL (≈ 284 µM) | 50 µg/mL (≈ 284 µM) | > 50 µg/mL | 6.25 µg/mL (≈ 35.5 µM) | > 50 µg/mL | 12.5 µg/mL (≈ 71 µM) | – | – | – | – | – | – | – | – |
| O=C(NN=Cc1ccc([N+](=O)[O-])o1)c1cn(CCO)nc1[N+](=O)[O-] [Compound 94, 1-(2-hydroxyethyl)-3-nitropyrazole-4-carboxylic acid, 5-nitrofurfurylidene hydrazide] | – | – | – | – | – | – | – | – | 25 µg/mL (≈ 73.9 µM) | 6.25 µg/mL (≈ 18.5 µM) | 25 µg/mL (≈ 73.9 µM) | 6.25 µg/mL (≈ 18.5 µM) | < 1.56 µg/mL | 25 µg/mL (≈ 73.9 µM) | < 1.56 µg/mL |
| NC(=O)c1cn(-c2ccc([N+](=O)[O-])cc2)nc1[N+](=O)[O-] [Compound 5, 3-nitro-1-(4-nitrophenyl)-4-pyrazolecarboxamide] | – | – | – | – | – | – | – | – | > 50 µg/mL | 25 µg/mL (≈ 90.2 µM) | > 50 µg/mL | 3.12 µg/mL (≈ 11.3 µM) | 6.25 µg/mL (≈ 22.5 µM) | > 50 µg/mL | 3.12 µg/mL (≈ 11.3 µM) |
| NC(=O)c1cn(-c2ncc([N+](=O)[O-])s2)nc1[N+](=O)[O-] [Compound 95, 3-nitro-1-(5-nitro-2-thiazolyl)pyrazole-4-carboxamide] | – | – | – | – | – | – | – | – | > 50 µg/mL | 12.5 µg/mL (≈ 44 µM) | 25 µg/mL (≈ 88 µM) | < 1.56 µg/mL | < 1.56 µg/mL | 50 µg/mL (≈ 176 µM) | 3.12 µg/mL (≈ 11 µM) |
| Cn1cc(C#N)c([N+](=O)[O-])n1 [Compound 30, 1-methyl-3-nitro-4-pyrazolecarbonitrile] | 100 µg/mL (≈ 657 µM) | 50 µg/mL (≈ 329 µM) | 100 µg/mL (≈ 657 µM) | 100 µg/mL (≈ 657 µM) | 100 µg/mL (≈ 657 µM) | 100 µg/mL (≈ 657 µM) | – | – | – | – | – | – | – | – | – |
| CCS(=O)(=O)CCn1cc(C#N)c([N+](=O)[O-])n1 [Compound 86, 1-(2-ethylsulfonyethyl)-3-nitro-4-pyrazolecarbonitrile] | > 50 µg/mL | 50 µg/mL (≈ 194 µM) | > 50 µg/mL | > 50 µg/mL | 25 µg/mL (≈ 96.8 µM) | > 50 µg/mL | > 50 µg/mL | – | – | – | – | – | – | – | – |
| CSCCn1cc(C(N)=O)c([N+](=O)[O-])n1 [Compound 97, 1-[2-(methylthio)ethyl]-3-nitropyrazole-4-carboxamide] | > 50 µg/mL | 25 µg/mL (≈ 109 µM) | > 50 µg/mL | > 50 µg/mL | 12.5 µg/mL (≈ 54.3 µM) | > 50 µg/mL | 25 µg/mL (≈ 109 µM) | – | – | – | – | – | – | – | – |
| NC(=O)c1cn(CCN2C(=O)c3ccccc3C2=O)nc1[N+](=O)[O-] [Compound 10, 1-(2-phthalimidoethyl)-3-nitro-4-pyrazolecarboxamide] | 50 µg/mL (≈ 152 µM) | 50 µg/mL (≈ 152 µM) | > 50 µg/mL | 6.25 µg/mL (≈ 19 µM) | 50 µg/mL (≈ 152 µM) | 6.25 µg/mL (≈ 19 µM) | 25 µg/mL (≈ 75.9 µM) | – | – | – | – | – | – | – | – |
| N#Cc1cn(-c2ncc([N+](=O)[O-])s2)nc1[N+](=O)[O-] [Compound 68, 3-nitro-1-(5-nitro-2-thiazolyl)-4-pyrazolecarbonitrile] | – | – | – | – | – | – | – | – | 50 µg/mL (≈ 188 µM) | 25 µg/mL (≈ 93.9 µM) | 50 µg/mL (≈ 188 µM) | 25 µg/mL (≈ 93.9 µM) | 12.5 µg/mL (≈ 47 µM) | 50 µg/mL (≈ 188 µM) | 12.5 µg/mL (≈ 47 µM) |
| CCCCCCCCCn1cc(C(N)=O)c([N+](=O)[O-])n1 [Compound 48, 3-nitro-1-nonyl-4-pyrazolecarboxamide] | > 50 µg/mL | 50 µg/mL (≈ 177 µM) | > 50 µg/mL | 25 µg/mL (≈ 88.5 µM) | 50 µg/mL (≈ 177 µM) | > 50 µg/mL | 0.39 µg/mL (≈ 1.38 µM) | – | – | – | – | – | – | – | – |
| N#Cc1cn(-c2ccc([N+](=O)[O-])cc2)nc1[N+](=O)[O-] [Compound 92, 3-nitro-1-(4-nitrophenyl)-4-pyrazolecarbonitrile] | – | – | – | – | – | – | – | – | > 50 µg/mL | 12.5 µg/mL (≈ 48.2 µM) | > 50 µg/mL | 6.25 µg/mL (≈ 24.1 µM) | 6.25 µg/mL (≈ 24.1 µM) | 50 µg/mL (≈ 193 µM) | 0.78 µg/mL (≈ 3.01 µM) |
| N#Cc1cn(CCBr)nc1[N+](=O)[O-] [Compound 91, 1-(2-bromoethyl)-3-nitro-4-pyrazolecarbonitrile] | > 50 µg/mL | > 50 µg/mL | > 50 µg/mL | > 50 µg/mL | 12.5 µg/mL (≈ 51 µM) | 50 µg/mL (≈ 204 µM) | 12.5 µg/mL (≈ 51 µM) | – | – | – | – | – | – | – | – |
